Test results as given in patent US20260125382A1, “COMPOUNDS FOR INHIBITING OR DEGRADING CDK2 AND/OR CDK9 AND MEDICINAL USE THEREOF” (KOREA RESEARCH INSTITUTE OF CHEMICAL TECHNOLOGY, priority 2022, published 2026).

Assays:
[1] = target: T1, CDK9 (Homo sapiens, UniProt P50750); assay: CDK protein degradation activity (Western blotting), CDK9; type: cell-based; conditions: MDA-MB-231 cells, 16 hours, Western blot
T1 construct: endogenous in cells; host or cells: MDA-MB-231
Method in brief: (§1)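 Protein levels were read by Western blot densitometry, tubulin serving as loading reference. Beforehand, MDA-MB-231 cells had been exposed for 16 hours to 100 nM, 1 μM or 10 μM compound, DMSO as control.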

[2] = target: T2, CDK2 (Homo sapiens, UniProt P24941); assay: CDK protein degradation activity (Western blotting), CDK2; type: cell-based; conditions: MDA-MB-231 cells, 16 hours, Western blot
T2 construct: endogenous in cells; host or cells: MDA-MB-231
Method in brief: as §1

T1 sequence (P50750 whole entry): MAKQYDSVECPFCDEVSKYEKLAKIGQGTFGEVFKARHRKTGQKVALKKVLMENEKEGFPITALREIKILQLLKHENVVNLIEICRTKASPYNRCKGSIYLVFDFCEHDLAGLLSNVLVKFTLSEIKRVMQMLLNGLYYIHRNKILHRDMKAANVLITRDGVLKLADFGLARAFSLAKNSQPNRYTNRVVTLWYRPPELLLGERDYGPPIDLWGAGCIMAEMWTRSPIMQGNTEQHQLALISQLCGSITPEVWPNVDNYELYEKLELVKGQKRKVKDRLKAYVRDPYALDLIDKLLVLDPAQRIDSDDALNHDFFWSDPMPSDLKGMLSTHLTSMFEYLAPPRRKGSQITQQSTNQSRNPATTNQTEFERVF

| Enzyme degradation CDK9 (% remaining) @ 0.1 μM [1] | Enzyme degradation CDK9 (% remaining) @ 1 μM [1] | Enzyme degradation CDK9 (% remaining) @ 10 μM [1] | Enzyme degradation CDK2 (% remaining) @ 0.1 μM [2] | Enzyme degradation CDK2 (% remaining) @ 1 μM [2] | Enzyme degradation CDK2 (% remaining) @ 10 μM [2] | Compound |
| --- | --- | --- | --- | --- | --- | --- |
| 50% | 10% | 20% | 80% | 60% | 90% | Cc1cccc(C(=O)N[C@H]2C[C@@H](n3cnc4c(NCc5cccc(OCC6CCN(C(=O)COc7ccc8c(c7)C(=O)N([C@H]7CCC(=O)NC7=O)C8=O)CC6)c5)ncnc43)C2)n1 [Compound 94, N-((1s,3s)-3-(6-((3-((1-(2-((2-(2,6-dioxopiperidin-3-yl)-1,3-dioxoisoindolin-5-yl)oxy)acetyl)piperidin-4-yl)methoxy)benzyl)amino)-9H-purin-9-yl)cyclobutyl)-6-methylpicolinamide] |
| 90% | 20% | 30% | 100% | 60% | 80% | Cc1cccc(C(=O)NC2CC(n3cnc4c(NCc5ccc(OCC6CCN(c7ccc8c(c7)C(=O)N([C@H]7CCC(=O)NC7=O)C8=O)CC6)cc5)ncnc43)C2)n1 (stereo partly drawn) [Compound 110, N-((1s,3s)-3-(6-((4-((1-(2-(2,6-dioxopiperidin-3-yl)-1,3-dioxoisoindolin-5-yl)piperidin-4-yl)methoxy)benzyl)amino)-9H-purin-9-yl)cyclobutyl)-6-methylpicolinamide] |
| 0/0/0% | 0/0/0% | 0/0/0% | 40/40/40% | 40/40/40% | 40/40/40% | Cc1cccc(C(=O)NC2CC(n3cnc4c(Nc5ccc(N6CCN(CCC7CCN(C(=O)C8CN(c9ccc%10c(c9)C(=O)N([C@H]9CCC(=O)NC9=O)C%10=O)C8)CC7)CC6)cc5)ncnc43)C2)n1 (stereo partly drawn) [Compound 388, N-((1s,3s)-3-(6-((4-(4-(2-(1-(1-(2-(2,6-dioxopiperidin-3-yl)-1,3-dioxoisoindolin-5-yl)azetidin-3-carbonyl)piperidin-4-yl)ethyl)piperazin-1-yl)phenyl)amino)-9H-purin-9-yl)cyclobutyl)-6-methylpicolinamide] |
| 20% | 10% | 10% | 100% | 70% | 50% | O=C1CC[C@@H](c2ccc(OCC(=O)N3CC(N4CCC5(CC4)CC(N4CCN(c6ccc(Nc7ncnc8c7ncn8[C@H]7C[C@@H](NC(=O)Cc8ccccc8)C7)cc6)CC4)C5)C3)cc2)C(=O)N1 [Compound 273, N-((1s,3s)-3-(6-((4-(4-(7-(1-(2-(4-(2,6-dioxopiperidin-3-yl)phenoxy)acetyl)azetidin-3-yl)-7-azaspiro[3.5]nonan-2-yl)piperazin-1-yl)phenyl)amino)-9H-purin-9-yl)cyclobutyl)-2-phenylacetamide] |
| 90% | 40% | 0% | 50% | 20% | 10% | O=C1CC[C@H](N2C(=O)c3cccc(OCC(=O)N4CCC5(CC(N6CCN(c7ccc(Nc8ncnc9c8ncn9[C@H]8C[C@@H](NC(=O)Cc9ccccc9)C8)cc7)CC6)C5)C4)c3C2=O)C(=O)N1 (stereo partly drawn) [Compound 264, N-((1s,3s)-3-(6-((4-(4-(6-(2-((2-(2,6-dioxopiperidin-3-yl)-1,3-dioxoisoindolin-4-yl)oxy)acetyl)-6-azaspiro[3.4]octan-2-yl)piperazin-1-yl)phenyl)amino)-9H-purin-9-yl)cyclobutyl)-2-phenylacetamide] |
| 0/0/0% | 0/0/0% | 0/0/0% | 30/30/30% | 30/30/30% | 30/30/30% | O=C1CCC(N2C(=O)c3cc(F)c(N4CCC(C(=O)N5CCC(CCN6CCN(c7ccc(Nc8ncnc9c8ncn9[C@H]8C[C@@H](NC(=O)c9c(Cl)cccc9Cl)C8)cc7)CC6)CC5)CC4)cc3C2=O)C(=O)N1 (stereo partly drawn) [Compound 463, 2,6-dichloro-N-((1s,3s)-3-(6-((4-(4-(2-(1-(1-(2-(2,6-dioxopiperidin-3-yl)-6-fluoro-1,3-dioxoisoindolin-5-yl)piperidin-4-carbonyl)piperidin-4-yl)ethyl)piperazin-1-yl)phenyl)amino)-9H-purin-9-yl)cyclobutyl)benzamide] |
| 30/30/30% | 30/30/30% | 30/30/30% | 50% | 50% | 40% | O=C1CC[C@H](N2C(=O)c3cccc(NCC(=O)N4CCC(CC(=O)N5CCN(c6ccc(Nc7ncnc8c7ncn8C7CC(NC(=O)Cc8ccccc8)C7)cc6)CC5)CC4)c3C2=O)C(=O)N1 (stereo partly drawn) [Compound 211, N-((1s,3s)-3-(6-((4-(4-(2-(1-((2-(2,6-dioxopiperidin-3-yl)-1,3-dioxoisoindolin-4-yl)glycyl)piperidin-4-yl)acetyl)piperazin-1-yl)phenyl)amino)-9H-purin-9-yl)cyclobutyl)-2-phenylacetamide] |
| 90% | 90% | 10% | 90% | 80% | 70% | Cc1cccc(C(=O)NC2CC(n3cnc4c(NC5CCN(C(=O)CC6CCN(c7ccc8c(c7)C(=O)N([C@H]7CCC(=O)NC7=O)C8=O)CC6)CC5)ncnc43)C2)n1 (stereo partly drawn) [Compound 53, N-((1s,3s)-3-(6-((1-(2-(1-(2-(2,6-dioxopiperidin-3-yl)-1,3-dioxoisoindolin-5-yl)piperidin-4-yl)acetyl)piperidin-4-yl)amino)-9H-purin-9-yl)cyclobutyl)-6-methylpicolinamide] |
| 0/0/0% | 0/0/0% | 0/0/0% | 100/100/100% | 100/100/100% | 100/100/100% | O=C1CCC(N2C(=O)c3ccc(NCC(=O)N4CCC(CN5CCC(CNc6ncnc7c6ncn7[C@H]6C[C@@H](NC(=O)Cc7ccccc7)C6)CC5)CC4)cc3C2=O)C(=O)N1 (stereo partly drawn) [Compound 185, N-((1s,3s)-3-(6-(((1-((1-((2-(2,6-dioxopiperidin-3-yl)-1,3-dioxoisoindolin-5-yl)glycyl)piperidin-4-yl)methyl)piperidin-4-yl)methyl)amino)-9H-purin-9-yl)cyclobutyl)-2-phenylacetamide] |
| 20% | 10% | 0% | 70% | 50% | 50% | O=C1CC[C@H](N2C(=O)c3cccc(OCC(=O)N4CCC(CN5CCC(CNc6ncnc7c6ncn7C6CC(NC(=O)Cc7ccccc7)C6)CC5)CC4)c3C2=O)C(=O)N1 (stereo partly drawn) [Compound 182, N-((1s,3s)-3-(6-(((1-((1-(2-((2-(2,6-dioxopiperidin-3-yl)-1,3-dioxoisoindolin-4-yl)oxy)acetyl)piperidin-4-yl)methyl)piperidin-4-yl)methyl)amino)-9H-purin-9-yl)cyclobutyl)-2-phenylacetamide] |
| 0/0/0% | 0/0/0% | 0/0/0% | 40/40/40% | 40/40/40% | 40/40/40% | Cc1cccc(C(=O)NC2CC(n3cnc4c(Nc5ccc(N6CCN(CC7CCN(C(=O)C8CCN(c9ccc%10c(c9)C(=O)N([C@H]9CCC(=O)NC9=O)C%10=O)CC8)CC7)CC6)cc5)ncnc43)C2)n1 (stereo partly drawn) [Compound 379, N-((1s,3s)-3-(6-((4-(4-((1-(1-(2-(2,6-dioxopiperidin-3-yl)-1,3-dioxoisoindolin-5-yl)piperidin-4-carbonyl)piperidin-4-yl)methyl)piperazin-1-yl)phenyl)amino)-9H-purin-9-yl)cyclobutyl)-6-methylpicolinamide] |
